For experiment [1], the target named is 5-hydroxytryptamine receptor 2C (Homo sapiens, UniProt P28335). The experiment can be described thus: GPCRScan assay: inhibition of 5-HT2C. More on the design: radioligand conc. used [nm] 1.0 – 2.5, parental cells HEK T.
Experiment [2] deals with B1 bradykinin receptor (Homo sapiens) (UniProt P46663). The experiment can be described thus: Inhibition of Bradykinin B1 at 10 µM in the Eurofins-Panlabs radioligand binding assay (Eurofins_assay_212510). The following applies: Compound concentration 10.0 uM.
Experiment [3] addresses Voltage-dependent N-type calcium channel subunit alpha-1B (Homo sapiens) (UniProt Q00975). Put plainly: Inhibition of Calcium Channel N-Type at 10 µM in the Eurofins-Panlabs radioligand binding assay (Eurofins_assay_216000). Particulars: Rattus norvegicus; Compound concentration 10.0 uM.
Experiment [4] has as its target T1, D(4) dopamine receptor (Homo sapiens) (UniProt P21917).
T1 sequence (whole entry): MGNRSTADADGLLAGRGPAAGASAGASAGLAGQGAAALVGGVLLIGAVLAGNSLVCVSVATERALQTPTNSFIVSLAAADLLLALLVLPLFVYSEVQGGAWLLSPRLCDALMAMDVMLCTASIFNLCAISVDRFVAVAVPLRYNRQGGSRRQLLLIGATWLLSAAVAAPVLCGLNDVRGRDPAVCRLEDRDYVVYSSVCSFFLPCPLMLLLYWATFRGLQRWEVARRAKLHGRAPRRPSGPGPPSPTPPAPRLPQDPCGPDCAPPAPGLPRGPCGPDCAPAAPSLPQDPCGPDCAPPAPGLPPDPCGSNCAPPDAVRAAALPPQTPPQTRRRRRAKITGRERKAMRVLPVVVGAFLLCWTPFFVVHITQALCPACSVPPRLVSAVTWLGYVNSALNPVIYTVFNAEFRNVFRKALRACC
Put plainly: Inhibition of Dopamine D4.2 at 10 µM in the Eurofins-Panlabs radioligand binding assay (Eurofins_assay_219900). The following applies: Compound concentration 10.0 uM. More on the design: ligand concentration 0.5 nM.

Experiment [5] has as its target Glutamate receptor ionotropic, kainate (Rattus norvegicus) (UniProt P22756+Q01812+P42260+P42264+Q63273). Put plainly: Inhibition of Glutamate, Kainate at 10 µM in the Eurofins-Panlabs radioligand binding assay (Eurofins_assay_232700). Particulars: Compound concentration 10.0 uM.
Experiment [6] is filed under the species Rattus norvegicus. The experiment can be described thus: Inhibition of Glutamate, NMDA, Phencyclidine at 10 µM in the Eurofins-Panlabs radioligand binding assay (Eurofins_assay_233000). The experiment is classed as protein-complex assay. Particulars: Compound concentration 10.0 uM.
The species entered for another experiment is Mus musculus. Put plainly: Inhibition of Interleukin IL-1 at 10 µM in the Eurofins-Panlabs radioligand binding assay (Eurofins_assay_243520). More on the design: ligand concentration 0.1 nM. Particulars: Compound concentration 10.0 uM.
Experiment [7] concerns the target Melatonin receptor type 1A (Homo sapiens) (UniProt P48039). Put plainly: Inhibition of Melatonin MT1 at 10 µM in the Eurofins-Panlabs radioligand binding assay (Eurofins_assay_251600). Set-up: ligand concentration 0.05 nM. Particulars: Compound concentration 10.0 uM.
Experiment [8] deals with Neuropeptide Y receptor type 2 (Homo sapiens) (UniProt P49146). Put plainly: Inhibition of Neuropeptide Y Y2 at 10 µM in the Eurofins-Panlabs radioligand binding assay (Eurofins_assay_257110). Particulars: Compound concentration 10.0 uM.
The species named for another experiment is Oryctolagus cuniculus. Put plainly: Inhibition of Purinergic P2X at 10 µM in the Eurofins-Panlabs radioligand binding assay (Eurofins_assay_268700). The experiment is classed as protein assay. The following applies: Compound concentration 10.0 uM.
The species entered for experiment [9] is Rattus norvegicus. Put plainly: Inhibition of Rolipram at 10 µM in the Eurofins-Panlabs radioligand binding assay (Eurofins_assay_268811). The experiment is classed as protein assay. More on the design: ligand concentration 1.8 nM. Particulars: Compound concentration 10.0 uM.
The target of experiment [10] is Sigma non-opioid intracellular receptor 1 (Homo sapiens) (UniProt Q99720). Put plainly: Inhibition of Sigma 1 at 10 µM in the Eurofins-Panlabs radioligand binding assay (Eurofins_assay_278110). The following applies: Compound concentration 10.0 uM. More on the design: ligand concentration 8 nM.
Experiment [11] has as its target Substance-P receptor (Homo sapiens) (UniProt P25103). Put plainly: Inhibition of Tachykinin NK1 at 10 µM in the Eurofins-Panlabs radioligand binding assay (Eurofins_assay_255520). More on the design: ligand concentration 0.8 nM. The following applies: Compound concentration 10.0 uM.
Experiment [12] concerns the target Adenosine receptor A3 (Homo sapiens) (UniProt P0DMS8). The following applies: Compound concentration 10.0 uM.
Experiment [13] concerns the target B2 bradykinin receptor (Homo sapiens) (UniProt P30411). Particulars: Compound concentration 10.0 uM.
Experiment [14] deals with Cannabinoid receptor 1 (Homo sapiens) (UniProt P21554). The following applies: Compound concentration 10.0 uM.
Experiment [15] addresses D(1A) dopamine receptor (Homo sapiens) (UniProt P21728). Particulars: Compound concentration 10.0 uM.
Experiment [16] deals with D(2) dopamine receptor (Homo sapiens) (UniProt P14416). The following applies: Compound concentration 10.0 uM.
Experiment [17] deals with D(3) dopamine receptor (Homo sapiens) (UniProt P35462). The following applies: Compound concentration 10.0 uM.
For experiment [18], the target named is Estrogen receptor (Homo sapiens) (UniProt P03372). The following applies: Compound concentration 10.0 uM.
Experiment [19] deals with T2, Glutamate NMDA receptor (Rattus norvegicus) (UniProt P35439+Q00959+Q00960+Q00961+Q62645+Q8VHN2+Q9R1M7). Particulars: Compound concentration 10.0 uM.
Experiment [20] addresses T2, Glutamate NMDA receptor (Rattus norvegicus). Particulars: Compound concentration 10.0 uM. The source holds these as a separate data set.
For experiment [21], the target named is Mu-type opioid receptor (Homo sapiens) (UniProt P35372). Particulars: Compound concentration 10.0 uM.
Experiment [22] addresses Sodium-dependent dopamine transporter (Homo sapiens) (UniProt Q01959).
Experiment [23] has as its target Alpha-2C adrenergic receptor (Homo sapiens, UniProt P18825). The experiment can be described thus: GPCRScan assay: inhibition of Alpha2C. More on the design: radioligand conc. used [nm] 0.5 – 1.0, parental cells stable MDCK.
Experiment [24] has as its target Mitotic checkpoint serine/threonine-protein kinase BUB1 (Homo sapiens) (UniProt O43683). Particulars: Compound concentration 1000.0 nM.
The subject of experiment [25] is Epidermal growth factor receptor (Homo sapiens), P00533 [UNDEFINED MUTATION]. Particulars: Compound concentration 1000.0 nM.
Experiment [26] deals with 5-hydroxytryptamine receptor 1E (Homo sapiens) (UniProt P28566). The following applies: Compound concentration 10.0 uM.
In experiment [27] the target is Histamine H3 receptor (Homo sapiens) (UniProt Q9Y5N1). The following applies: Compound concentration 10.0 uM.

Molecules are shown by their SMILES.

Chain of 5-hydroxytryptamine receptor 2C (P28335 whole entry): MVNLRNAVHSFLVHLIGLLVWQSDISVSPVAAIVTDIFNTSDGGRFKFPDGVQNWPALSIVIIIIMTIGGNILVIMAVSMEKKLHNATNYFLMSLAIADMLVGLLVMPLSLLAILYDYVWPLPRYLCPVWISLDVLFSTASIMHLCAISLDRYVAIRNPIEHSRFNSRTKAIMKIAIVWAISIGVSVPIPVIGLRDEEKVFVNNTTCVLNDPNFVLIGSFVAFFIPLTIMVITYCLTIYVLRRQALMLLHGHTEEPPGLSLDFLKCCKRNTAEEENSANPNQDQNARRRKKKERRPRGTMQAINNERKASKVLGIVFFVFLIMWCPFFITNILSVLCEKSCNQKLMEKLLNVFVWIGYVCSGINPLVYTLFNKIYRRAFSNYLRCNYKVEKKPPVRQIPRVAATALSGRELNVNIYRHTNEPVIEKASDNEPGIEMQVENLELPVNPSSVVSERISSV
Chain of Sodium-dependent dopamine transporter (Homo sapiens) (Q01959 whole entry): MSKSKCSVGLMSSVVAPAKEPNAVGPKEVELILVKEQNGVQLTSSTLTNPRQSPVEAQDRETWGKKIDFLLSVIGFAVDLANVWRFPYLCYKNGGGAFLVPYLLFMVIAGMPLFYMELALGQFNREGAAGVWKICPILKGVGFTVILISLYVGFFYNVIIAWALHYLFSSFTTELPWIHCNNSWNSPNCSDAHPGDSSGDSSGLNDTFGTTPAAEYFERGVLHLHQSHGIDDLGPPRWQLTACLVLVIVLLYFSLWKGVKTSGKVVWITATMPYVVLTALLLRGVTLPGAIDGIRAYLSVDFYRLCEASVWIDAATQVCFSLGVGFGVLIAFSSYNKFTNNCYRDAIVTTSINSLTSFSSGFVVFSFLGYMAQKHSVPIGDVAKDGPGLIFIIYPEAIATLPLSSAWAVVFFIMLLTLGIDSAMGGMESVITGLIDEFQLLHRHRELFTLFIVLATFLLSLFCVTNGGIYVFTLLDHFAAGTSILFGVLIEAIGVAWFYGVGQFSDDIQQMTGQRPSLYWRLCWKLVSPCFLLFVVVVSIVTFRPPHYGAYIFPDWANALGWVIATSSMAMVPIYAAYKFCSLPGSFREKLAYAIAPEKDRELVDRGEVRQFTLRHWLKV
Chain of Neuropeptide Y receptor type 2 (Homo sapiens) (P49146 whole entry): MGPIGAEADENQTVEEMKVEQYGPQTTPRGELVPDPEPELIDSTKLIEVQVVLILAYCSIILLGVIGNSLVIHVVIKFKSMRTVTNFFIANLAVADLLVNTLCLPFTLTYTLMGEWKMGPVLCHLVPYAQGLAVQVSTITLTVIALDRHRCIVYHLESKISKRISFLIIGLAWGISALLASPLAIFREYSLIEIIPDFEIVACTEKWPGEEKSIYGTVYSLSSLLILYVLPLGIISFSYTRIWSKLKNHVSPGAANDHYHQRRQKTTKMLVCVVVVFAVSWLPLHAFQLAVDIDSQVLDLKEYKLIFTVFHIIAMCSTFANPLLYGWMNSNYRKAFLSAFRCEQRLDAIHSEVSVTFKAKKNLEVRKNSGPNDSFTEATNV
Chain of Cannabinoid receptor 1 (Homo sapiens) (P21554 whole entry): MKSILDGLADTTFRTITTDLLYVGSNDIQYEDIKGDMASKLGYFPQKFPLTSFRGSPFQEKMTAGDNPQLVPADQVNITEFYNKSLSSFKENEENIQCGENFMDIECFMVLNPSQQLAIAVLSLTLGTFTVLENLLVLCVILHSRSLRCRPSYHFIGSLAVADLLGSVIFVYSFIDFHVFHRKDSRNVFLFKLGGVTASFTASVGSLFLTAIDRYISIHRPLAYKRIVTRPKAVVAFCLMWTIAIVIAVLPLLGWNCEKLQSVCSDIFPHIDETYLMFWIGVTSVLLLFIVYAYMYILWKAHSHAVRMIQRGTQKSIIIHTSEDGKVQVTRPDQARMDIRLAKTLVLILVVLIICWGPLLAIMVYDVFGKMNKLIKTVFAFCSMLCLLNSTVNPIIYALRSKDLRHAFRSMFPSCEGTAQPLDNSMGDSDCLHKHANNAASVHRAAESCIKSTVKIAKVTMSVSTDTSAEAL
Chain of Epidermal growth factor receptor (Homo sapiens), P00533 [UNDEFINED MUTATION] (P00533 whole entry, looked up, change not shown): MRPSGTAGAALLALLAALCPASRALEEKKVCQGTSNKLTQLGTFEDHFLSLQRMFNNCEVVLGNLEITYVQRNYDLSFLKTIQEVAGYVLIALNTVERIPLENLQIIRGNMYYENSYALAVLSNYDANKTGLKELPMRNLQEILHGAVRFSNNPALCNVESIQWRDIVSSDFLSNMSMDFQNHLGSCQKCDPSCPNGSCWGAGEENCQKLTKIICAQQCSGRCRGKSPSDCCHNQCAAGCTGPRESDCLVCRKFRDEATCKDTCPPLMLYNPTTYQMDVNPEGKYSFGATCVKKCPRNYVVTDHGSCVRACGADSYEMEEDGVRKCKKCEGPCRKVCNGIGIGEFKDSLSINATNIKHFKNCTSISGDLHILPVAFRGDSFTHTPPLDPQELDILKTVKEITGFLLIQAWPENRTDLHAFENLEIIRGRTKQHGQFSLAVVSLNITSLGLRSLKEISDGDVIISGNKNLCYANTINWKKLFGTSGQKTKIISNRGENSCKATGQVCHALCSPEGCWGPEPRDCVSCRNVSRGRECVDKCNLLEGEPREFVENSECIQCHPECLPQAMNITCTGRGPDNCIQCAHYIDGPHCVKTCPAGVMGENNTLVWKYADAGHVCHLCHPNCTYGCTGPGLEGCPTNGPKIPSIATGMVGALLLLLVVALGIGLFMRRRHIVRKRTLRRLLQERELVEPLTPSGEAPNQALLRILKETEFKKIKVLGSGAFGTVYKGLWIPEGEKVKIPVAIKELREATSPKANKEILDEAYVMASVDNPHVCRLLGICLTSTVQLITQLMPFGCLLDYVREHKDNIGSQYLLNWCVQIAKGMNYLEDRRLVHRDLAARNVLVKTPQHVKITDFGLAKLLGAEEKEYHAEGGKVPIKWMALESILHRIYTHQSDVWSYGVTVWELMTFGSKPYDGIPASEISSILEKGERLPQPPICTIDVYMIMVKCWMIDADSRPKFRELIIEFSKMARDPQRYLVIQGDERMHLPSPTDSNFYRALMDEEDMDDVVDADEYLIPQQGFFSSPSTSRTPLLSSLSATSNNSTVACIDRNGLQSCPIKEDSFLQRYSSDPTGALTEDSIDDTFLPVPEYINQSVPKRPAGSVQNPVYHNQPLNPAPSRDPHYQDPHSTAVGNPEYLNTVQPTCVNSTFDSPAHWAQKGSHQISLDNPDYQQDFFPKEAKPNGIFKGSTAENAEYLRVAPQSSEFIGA
Chain of Adenosine receptor A3 (Homo sapiens) (P0DMS8 whole entry): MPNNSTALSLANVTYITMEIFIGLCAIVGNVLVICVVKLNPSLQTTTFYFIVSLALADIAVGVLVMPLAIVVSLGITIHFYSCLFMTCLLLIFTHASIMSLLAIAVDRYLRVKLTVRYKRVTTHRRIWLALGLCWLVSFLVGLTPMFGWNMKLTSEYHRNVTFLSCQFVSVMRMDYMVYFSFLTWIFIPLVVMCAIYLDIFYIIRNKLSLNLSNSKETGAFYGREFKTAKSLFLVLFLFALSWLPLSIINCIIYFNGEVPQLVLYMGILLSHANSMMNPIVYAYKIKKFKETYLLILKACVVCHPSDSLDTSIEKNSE
Chain of Mu-type opioid receptor (Homo sapiens) (P35372 whole entry): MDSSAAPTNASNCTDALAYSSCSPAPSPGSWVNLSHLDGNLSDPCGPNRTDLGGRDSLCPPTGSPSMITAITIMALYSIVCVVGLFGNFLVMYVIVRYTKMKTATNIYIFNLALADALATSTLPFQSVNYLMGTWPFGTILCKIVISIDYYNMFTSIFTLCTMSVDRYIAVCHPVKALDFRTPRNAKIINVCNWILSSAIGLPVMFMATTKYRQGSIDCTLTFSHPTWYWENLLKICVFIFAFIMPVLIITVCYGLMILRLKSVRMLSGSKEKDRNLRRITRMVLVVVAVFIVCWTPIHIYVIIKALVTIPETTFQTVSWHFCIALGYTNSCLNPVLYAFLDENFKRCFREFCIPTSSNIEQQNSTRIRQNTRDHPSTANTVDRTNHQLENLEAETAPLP
Chain of Estrogen receptor (Homo sapiens) (P03372 whole entry): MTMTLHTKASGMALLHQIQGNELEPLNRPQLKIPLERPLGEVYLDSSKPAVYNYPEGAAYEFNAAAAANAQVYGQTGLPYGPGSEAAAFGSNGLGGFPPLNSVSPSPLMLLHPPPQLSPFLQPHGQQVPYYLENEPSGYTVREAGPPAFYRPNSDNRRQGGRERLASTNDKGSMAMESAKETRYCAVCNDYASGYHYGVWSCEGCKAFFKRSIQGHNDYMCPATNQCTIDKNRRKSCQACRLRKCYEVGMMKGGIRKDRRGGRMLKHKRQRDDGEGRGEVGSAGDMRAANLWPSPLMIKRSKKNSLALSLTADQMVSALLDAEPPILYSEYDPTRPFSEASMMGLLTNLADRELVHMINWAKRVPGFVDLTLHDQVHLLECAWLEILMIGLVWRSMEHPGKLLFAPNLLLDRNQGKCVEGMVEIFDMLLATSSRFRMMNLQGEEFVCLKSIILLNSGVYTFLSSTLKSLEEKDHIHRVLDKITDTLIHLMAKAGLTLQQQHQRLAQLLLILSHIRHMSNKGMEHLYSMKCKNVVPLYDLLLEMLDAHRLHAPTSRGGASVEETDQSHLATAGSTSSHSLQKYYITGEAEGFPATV
Chain of Melatonin receptor type 1A (Homo sapiens) (P48039 whole entry): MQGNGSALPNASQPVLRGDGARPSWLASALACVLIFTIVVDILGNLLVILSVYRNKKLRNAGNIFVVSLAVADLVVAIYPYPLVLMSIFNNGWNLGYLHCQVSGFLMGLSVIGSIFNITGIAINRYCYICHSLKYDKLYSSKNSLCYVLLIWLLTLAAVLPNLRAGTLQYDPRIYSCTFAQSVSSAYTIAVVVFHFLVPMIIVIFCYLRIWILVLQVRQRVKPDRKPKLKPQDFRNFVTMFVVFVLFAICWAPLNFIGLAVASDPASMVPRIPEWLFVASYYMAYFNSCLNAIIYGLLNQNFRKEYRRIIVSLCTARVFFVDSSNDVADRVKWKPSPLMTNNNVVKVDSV

Regarding `NS(=O)(=O)c1cc(NC(=O)Cc2ccccc2)ccc1Oc1cccc(Cl)c1` [BAY-1797], the values for the Ki in experiment [1] (read-out: Ki) and in [1] (read-out: pKi (converted)) were 6.52 µM and 5.89 µM, respectively. Further, the inhibition (commonly the change of the read-out against control, counted positive when it falls) is 11% in experiment [2]; 6% in experiment [3]; 4% in experiment [4]; 3% in experiment [5]; -1% in the experiment filed under Rattus norvegicus [6]; 24% in the experiment filed under Mus musculus. Moreover, the inhibition was 13% in [7]; 8% in experiment [8]; 5% in the experiment listed under Oryctolagus cuniculus; 8% in the experiment filed under Rattus norvegicus [9]; 3% in experiment [10]; 4% in [11]. The inhibition in experiment [12] is 47%; in [13], 10%; in experiment [14], 44%; in experiment [15], 11%; in experiment [16], 15%; in experiment [17], 28%. Further, the inhibition in experiment [18] was 5%; in experiment [19] it was 23%; in [20] it was -9%; in [21], 9%; in [22] (Compound concentration 3.0 uM), 60%; in [22] (Compound concentration 10.0 uM) it was 81%.

Consider `NS(=O)(=O)c1cc(NC(=O)C2(c3ccccc3Cl)CC2)ccc1Oc1cccc(Cl)c1` [BAY-207], for which, in experiment [23], the Ki was 0.654 µM. The residual activity (usually what remains of the control signal, in per cent) in experiment [24] is 95%; in [25] it was 75%. The values for the inhibition in [26] and in [27] were -1.46% and 3.87%, respectively.
